Experiment: Study HDP-CDV-201: safety and tolerability (adverse events, laboratory abnormalities, discontinuations)
Type: in vivo, human (adult allogeneic HSCT recipients)
Protocol: Clinical Studies of HDP-CDV were performed and described in detail in the following Examples. For example, HDP-CDV-201 is a placebo-controlled, dose-escalating trial in HSCT CMV (R+) recipients, evaluating the ability of HDP-CDV to prevent or control CMV infection was carried out. Five cohorts were established in which participants or subjects received either placebo or the HDP-CDV orally, in doses ranging from 40 mg weekly (QW) to 200 mg twice weekly (BIW). Subjects who were post-HSCT were enrolled at the time of engraftment and randomized to HDP-CDV or placebo (3 to 1 ratio) and received blinded therapy until approximately 100 day post-transplantation. HDP-CDV doses were 40 mg QW, 100 mg QW, 200 mg QW, 200 mg BIW and 100 mg BIW. Escalation to the next dose was decided by the data monitoring committee after review of the safety data from the previous Cohort. Subjects who developed CMV disease or CMV infection requiring pre-emptive therapy with local standard of care were discontinued from blinded therapy and followed for 4 weeks. Subjects who completed treatment with blinded therapy were followed for 8 weeks post-therapy.
Data from Study HDP-CDV-201 also provided characterization of the safety and tolerability profile of HDP-CDV when administered for the prevention or control of CMV infection in high risk (R^+) post-HSCT adult subjects.
The Safety population (SAFETY) included all randomized subjects who took at least one dose of study treatment. This population was used to summarize safety outcomes based on the treatment actually received, in cases where a subject was treated contrary to the randomization schedule.
The safety and tolerability profile of HDP-CDV, including subject demographics and Baseline characteristics; the AE profile; and laboratory abnormalities of interest were analyzed in the cohorts followed in this investigation.
Subjects completing the treatment period received a full course of study medication; those completing the entire study attended visits through 8 weeks of follow up. Subjects who discontinued treatment may have done so for protocol specified reasons (e.g. development of clinically significant CMV infection requiring preemptive treatment with excluded anti-CMV medications) or for other reasons (e.g., withdrawal, adverse events, loss to follow-up). The disposition of subjects in Study HDP-CDV-201 during the double-blind, placebo-controlled treatment period (through Week 11) is listed by dosing Cohort in TABLE 23.
Adverse events were examined by severity to ensure that all safety signals were identified in this study population. Because of the frequency of events in HSCT recipients, particular attention was given to evaluation of Grade 3 […], 4 (severe), and 5 (fatal) adverse events.
Only those preferred terms for which at least one Grade 3 or higher event was experienced in any treatment group are listed. Cytomegalovirus-related AEs are excluded from this analysis.
HDP-CDV is a lipid conjugate of CDV. Because CDV is known to have adverse effects on renal function and bone marrow, decreased GFR and persistent neutropenia were identified as AEs of special interest. Key renal and hematological (TABLE 30) laboratory parameters were measured and listed below by Study HDP-CDV-201 treatment groups. TABLE 30 includes abnormal levels of serum creatinine, neutrophils, platelets, WBCs, and hemoglobin and includes data at Screening and during the treatment period.
A common metric for unit based dosing of medications is by weight (mg/kg). When the distribution of weights was examined for all subjects participating in the study, the median was 78 kg and the lower 25th percentile weight was approximately 65 kg, which translates to a cut-off of ˜3 mg/kg for a 200 mg total weekly dose. Based upon this approach, a cut-off of 3 mg/kg was used to assess the frequency of diarrhea and associated GI AEs reported for the subjects in Cohorts 3 or 4a (TABLE 40).

Compound: CCCCCCCCCCCCCCCCOCCCOP(=O)(O)COC(CO)Cn1ccc(N)nc1=O (stereo not drawn) [HDP-CDV]
- Grade of hepatobiliary AE acute liver injury, subject 3025 (Cohort 3): 1
- Grade of hepatobiliary AE gallbladder sludge, subject 3044 (Cohort 3): 2
- Grade of hepatobiliary AE hyperbilirubenemia, subject 3030 (Cohort 3): 2
- Grade of hepatobiliary AE hyperbilirubinemia, subject 3009 (Cohort 3): 1
- Grade of hepatobiliary AE hyperbilirubinemia, subject 3044 (Cohort 3): 4
- Grade of hepatobiliary AE jaundiced, subject 3030 (Cohort 3): 2
- Outcome of hepatobiliary AE acute liver injury, subject 3007 (Cohort 3): not recovered/not
- Outcome of hepatobiliary AE acute liver injury, subject 3025 (Cohort 3): recovered/resolved
- Outcome of hepatobiliary AE gallbladder sludge, subject 3044 (Cohort 3): not recovered/not
- Outcome of hepatobiliary AE hyperbilirubenemia, subject 3030 (Cohort 3): not recovered/not
- Outcome of hepatobiliary AE hyperbilirubinemia, subject 3009 (Cohort 3): recovered/resolved
- Outcome of hepatobiliary AE hyperbilirubinemia, subject 3044 (Cohort 3): not recovered/not
- Outcome of hepatobiliary AE jaundiced, subject 3030 (Cohort 3): not recovered/not
- Relationship of hepatobiliary AE acute liver injury, subject 3007 (Cohort 3): not related
- Relationship of hepatobiliary AE acute liver injury, subject 3025 (Cohort 3): not related
- Relationship of hepatobiliary AE gallbladder sludge, subject 3044 (Cohort 3): not related
- Relationship of hepatobiliary AE hyperbilirubenemia, subject 3030 (Cohort 3): not related
- Relationship of hepatobiliary AE hyperbilirubinemia, subject 3009 (Cohort 3): not related
- Relationship of hepatobiliary AE hyperbilirubinemia, subject 3044 (Cohort 3): not related
- Relationship of hepatobiliary AE jaundiced, subject 3030 (Cohort 3): not related
- subjects discontinued due to neutropenia (Cohort 3): 2 subject(s)
- ALT (Screening) >3 × ULN-5 × ULN, subjects (Cohort 3, 200 mg QW): 0
- ALT (Screening) >5 × ULN-10 × ULN, subjects (Cohort 3, 200 mg QW): 0
- ALT (Screening) >10 × ULN-20 × ULN, subjects (Cohort 3, 200 mg QW): 0
- ALT (Screening) >20 × ULN, subjects (Cohort 3, 200 mg QW): 0
- ALT (any time during therapy) >3 × ULN-5 × ULN, subjects (Cohort 3, 200 mg QW): 4 (10.5%)
- ALT (any time during therapy) >5 × ULN-10 × ULN, subjects (Cohort 3, 200 mg QW): 5 (13.2%)
- ALT (any time during therapy) >10 × ULN-20 × ULN, subjects (Cohort 3, 200 mg QW): 0
- ALT (any time during therapy) >20 × ULN, subjects (Cohort 3, 200 mg QW): 1 (2.6%)
- AST (Screening) >3 × ULN-5 × ULN, subjects (Cohort 3, 200 mg QW): 0
- AST (Screening) >5 × ULN-10 × ULN, subjects (Cohort 3, 200 mg QW): 0
- AST (Screening) >10 × ULN-20 × ULN, subjects (Cohort 3, 200 mg QW): 0
- AST (Screening) >20 × ULN, subjects (Cohort 3, 200 mg QW): 0
- AST (any time during therapy) >3 × ULN-5 × ULN, subjects (Cohort 3, 200 mg QW): 5 (13.2%)
- AST (any time during therapy) >5 × ULN-10 × ULN, subjects (Cohort 3, 200 mg QW): 1 (2.6%)
- AST (any time during therapy) >10 × ULN-20 × ULN, subjects (Cohort 3, 200 mg QW): 0
- AST (any time during therapy) >20 × ULN, subjects (Cohort 3, 200 mg QW): 0
- Alkaline Phosphatase (Screening) >2.5-5.0 × ULN, subjects (Cohort 3, 200 mg QW): 0
- Alkaline Phosphatase (Screening) >5.0-20.0 × ULN, subjects (Cohort 3, 200 mg QW): 0
- Alkaline Phosphatase (Screening) >20.0 × ULN, subjects (Cohort 3, 200 mg QW): 0
- Alkaline Phosphatase (Screening) >ULN-[…] ULN, subjects (Cohort 3, 200 mg QW): 5 (13.5%)
- Alkaline Phosphatase (any time during therapy) >2.5-5.0 × ULN, subjects (Cohort 3, 200 mg QW): 0
- Alkaline Phosphatase (any time during therapy) >5.0-20.0 × ULN, subjects (Cohort 3, 200 mg QW): 0
- Alkaline Phosphatase (any time during therapy) >20.0 × ULN, subjects (Cohort 3, 200 mg QW): 0
- Alkaline Phosphatase (any time during therapy) >ULN-[…] ULN, subjects (Cohort 3, 200 mg QW): 14 (36.8%)
- GI AE Leading to Study Drug Discontinuation: Abdominal pain, subjects (Cohort 3, 200 mg QW): 0
- GI AE Leading to Study Drug Discontinuation: Diarrhoea, subjects (Cohort 3, 200 mg QW): 1 (2.6%)
- GI AE Leading to Study Drug Discontinuation: Dyspepsia, subjects (Cohort 3, 200 mg QW): 2 (5.1%)
- GI AE Leading to Study Drug Discontinuation: Nausea, subjects (Cohort 3, 200 mg QW): 0
- GI AE Leading to Study Drug Discontinuation: Vomiting, subjects (Cohort 3, 200 mg QW): 0
- GI AEs Leading to Study Drug Discontinuation: Total subjects discontinued (Cohort 3, 200 mg QW): 3 (7.7%)
- Gastrointestinal AE Abdominal discomfort, subjects (Cohort 3, 200 mg QW): 1 (2.6%)
- Gastrointestinal AE Abdominal distention, subjects (Cohort 3, 200 mg QW): 0
- Gastrointestinal AE Abdominal pain upper, subjects (Cohort 3, 200 mg QW): 1 (2.6%)
- Gastrointestinal AE Abdominal pain, subjects (Cohort 3, 200 mg QW): 5 (12.8%)
- Gastrointestinal AE Constipation, subjects (Cohort 3, 200 mg QW): 2 (5.1%)
- Gastrointestinal AE Diarrhoea, subjects (Cohort 3, 200 mg QW): 13 (33.3%)
- Gastrointestinal AE Diverticulum intestinal haemorragic, subjects (Cohort 3, 200 mg QW): 1 (2.6%)
- Gastrointestinal AE Dyspepsia, subjects (Cohort 3, 200 mg QW): 4 (10.3%)
- Gastrointestinal AE Dysphagia, subjects (Cohort 3, 200 mg QW): 0
- Gastrointestinal AE Epigastric discomfort, subjects (Cohort 3, 200 mg QW): 0
- Gastrointestinal AE Flatulence, subjects (Cohort 3, 200 mg QW): 1 (2.6%)
- Gastrointestinal AE GERD, subjects (Cohort 3, 200 mg QW): 2 (5.1%)
- Gastrointestinal AE Gastritis, subjects (Cohort 3, 200 mg QW): 0
- Gastrointestinal AE Haematochezia, subjects (Cohort 3, 200 mg QW): 0
- Gastrointestinal AE Haemorroids, subjects (Cohort 3, 200 mg QW): 0
- Gastrointestinal AE Large intestinal ulcer, subjects (Cohort 3, 200 mg QW): 0
- Gastrointestinal AE Nausea, subjects (Cohort 3, 200 mg QW): 11 (28.2%)
- Gastrointestinal AE Odynophagia, subjects (Cohort 3, 200 mg QW): 0
- Gastrointestinal AE Oesophagitis, subjects (Cohort 3, 200 mg QW): 0
- Gastrointestinal AE Retching, subjects (Cohort 3, 200 mg QW): 0
- Gastrointestinal AE Vomiting, subjects (Cohort 3, 200 mg QW): 6 (15.4%)
- Hepatobiliary clinical AE Cholelithiasis, subjects (Cohort 3, 200 mg QW): 0
- Hepatobiliary clinical AE Hepatomegaly, subjects (Cohort 3, 200 mg QW): 0
- Hepatobiliary clinical AE Hyperbilirubinaemia, subjects (Cohort 3, 200 mg QW): 3 (7.7%)
- Hepatobiliary clinical AE Jaundice, subjects (Cohort 3, 200 mg QW): 1 (2.6%)
- Hepatobiliary clinical AE Liver injury, subjects (Cohort 3, 200 mg QW): 2 (5.1%)
- Intensity of Gastrointestinal AEs, Grade 1, subjects (Cohort 3, 200 mg QW): 12 (30.8%)
- Intensity of Gastrointestinal AEs, Grade 2, subjects (Cohort 3, 200 mg QW): 10 (25.6%)
- Intensity of Gastrointestinal AEs, Grade 3, subjects (Cohort 3, 200 mg QW): 2 (5.1%)
- Intensity of Gastrointestinal AEs, Grade 4, subjects (Cohort 3, 200 mg QW): 2 (5.1%)
- Intensity of Gastrointestinal AEs, Grade 5, subjects (Cohort 3, 200 mg QW): 0
- Proportion of Subjects with Stage 3 or 4 Gut GVHD (Cohort 3, 200 mg QW): 0%
- Serum ALT level, Median fold increase from Baseline at Follow-up Week 1 (Cohort 3, 200 mg QW): 2.52 fold
- Serum ALT level, Median fold increase from Baseline at Follow-up Week 4 (Cohort 3, 200 mg QW): 1.06 fold
- Serum ALT level, Peak Median fold increase from Baseline (Cohort 3, 200 mg QW): 3.13 fold
- Subjects completed study (Cohort 3, 200 mg QW): 14 (35.9%) n (%)
- TEAE Abdominal pain Grade 2, subjects (Cohort 3, 200 mg QW): 1 (2.6%)
- TEAE Abdominal pain Grade 3, subjects (Cohort 3, 200 mg QW): 1 (2.6%)
- TEAE Abdominal pain Grade 4, subjects (Cohort 3, 200 mg QW): 0
- TEAE Abdominal pain Grade 5, subjects (Cohort 3, 200 mg QW): 0
- TEAE Abdominal pain Overall Frequency, subjects (Cohort 3, 200 mg QW): 5 (12.8%)
- TEAE Diarrhea Grade 2, subjects (Cohort 3, 200 mg QW): 5 (12.8%)
- TEAE Diarrhea Grade 3, subjects (Cohort 3, 200 mg QW): 2 (5.1%)
- TEAE Diarrhea Grade 4, subjects (Cohort 3, 200 mg QW): 0
- TEAE Diarrhea Grade 5, subjects (Cohort 3, 200 mg QW): 0
- TEAE Diarrhea Overall Frequency, subjects (Cohort 3, 200 mg QW): 13 (33.3%)
- TEAE Hypokalaemia Grade 2, subjects (Cohort 3, 200 mg QW): 2 (5.1%)
- TEAE Hypokalaemia Grade 3, subjects (Cohort 3, 200 mg QW): 0
- TEAE Hypokalaemia Grade 4, subjects (Cohort 3, 200 mg QW): 0
- TEAE Hypokalaemia Grade 5, subjects (Cohort 3, 200 mg QW): 0
- TEAE Hypokalaemia, subjects (Cohort 3, 200 mg QW): 5 (12.8%)
- TEAE Nausea Grade 2, subjects (Cohort 3, 200 mg QW): 4 (10.3%)
- TEAE Nausea Grade 3, subjects (Cohort 3, 200 mg QW): 1 (2.6%)
- TEAE Nausea Grade 4, subjects (Cohort 3, 200 mg QW): 0
- TEAE Nausea Grade 5, subjects (Cohort 3, 200 mg QW): 0
- TEAE Nausea Overall Frequency, subjects (Cohort 3, 200 mg QW): 11 (28.2%)
- TEAE Vomiting Grade 2, subjects (Cohort 3, 200 mg QW): 1 (2.6%)
- TEAE Vomiting Grade 3, subjects (Cohort 3, 200 mg QW): 1 (2.6%)
- TEAE Vomiting Grade 4, subjects (Cohort 3, 200 mg QW): 0
- TEAE Vomiting Grade 5, subjects (Cohort 3, 200 mg QW): 0
